Values after ≈ are worked out from the molar mass of the structure shown. Bridge positions count the residues as written; N and C are the ends. Ends that are not written are not given here. PEG = not defined here

The test system of one data set is normal ICR mice. The data set can be described thus: In vivo hypoglycemic activity of GLP-1 analogues, subcutaneous administration, oral glucose loading. To be noted: normal ICR mice, 1 μmol/kg s.c., glucose 2 g/kg by gavage. Details: species or system mouse. The procedure: FIG. 21. In vivo hypoglycemic activities of GLP-1 analogues by subcutaneous administration. Normal ICR mice were subcutaneously injected with GLP-1 and its analogues or corresponding volumes of saline (1.0 μmol/kg, n=10). After 30 min, glucose solution (2 g/kg) was administered by gavage, and blood was collected from the tail tip at 30, 60, and 120 min after glucose administration. Blood glucose was measured using glucose oxidase method, and blood glucose values and area under the blood glucose curve (AUC) were calculated at each timepoint.
The day before the experiment, all of the animals were fasted for 15-16 hours with water ad libitum. On the day of the experiment, the animals were randomly divided according to body weight (n=10). Firstly, the blood was collected from the tail tip at 0 hour, and then the animals were administered subcutaneously with GLP-1 analog (SEQ ID NOs: 194-201, 1 μmol/kg) or saline. After 30 minutes, the animals were administered by gavage with glucose solution (2 g/kg), and the blood was collected from the tail tip at 30, 60, and 120 minutes later. Blood glucose was measured using glucose oxidase method. The blood glucose and area under the blood glucose-time curve (AUC) were calculated.

For data set [1], the target named is T1, interaction of PCSK9-LDLR (Homo sapiens, UniProt Q8NBP7).
T1 construct: purchased MBL Company, Beijing, China CY-8150
In words: PCSK9-LDLR in vitro binding assay (inhibitory rate). To be noted: sample 50 μM, PCSK9 75 ng/mL. The procedure:
Polypeptide PCSK9_1-14 (SEQ ID NOs: 210-223) is dissolved in pure water or DMSO. 85 μL reaction buffer, 5 μL 1 mM polypeptide sample and 10 μL 750 ng/mL PCSK9 protein was pre-incubated at room temperature for 20 minutes before being added to a 96 well plate. The OD450/540 nm value was measured according to the instructions of the PCSK9-LDLR in Vitro Binding Assay Kit (CY-8150, MBL Company, Beijing, China). Solvent control: replace polypeptide with 5 μL solvent. In 100 μL reaction system, the final concentration of the polypeptide and PCSK9 is 50 μM and 75 ng/mL, respectively.
Inhibition rate of polypeptide (%)=(OD450/540 nm(solvent control)−OD450/540 nm (sample))/OD450/540 nm(solvent control)×100

Data set [2] has as its system P407-induced hyperlipidemia mice. In words: Subcutaneous injection of PCSK9 inhibitory peptide, serum total cholesterol in P407-induced hyperlipidemia mice. Type of data set: in vivo, mouse. How it is done:
The experimental peptide sample was prepared using PEG400 with a final concentration of […], and the final concentration of PEG400 is 20% (w/v). Normal ICR mice were fasted overnight with water ad libitum. The next day, all of the mice were randomly divided into model control group (Con) and polypeptide administration group (2 μmol/kg) according to body weight. Then, all of the mice were intraperitoneally injected with P407 (500 mg/kg) and fed with feed 2 hours later. Six mice were taken as a normal control group (Nor). After 24 hours, the mice in Con were subcutaneously injected with saline containing 20% PEG400, and the mice in the treatment group were given peptides. Then, the blood was taken at different time points after administration to determine the serum total cholesterol (TC) level. In consideration of the complexity of factors affecting serum LDL-C levels, especially the differences between single and long-term administration, the in vivo activity of PCSK9 inhibitory peptide is mainly observed for changes in serum TC levels.

The target of the next data set is T2, trypsin (Bos taurus, UniProt P00760).
T2 sequence (P00760 24-246): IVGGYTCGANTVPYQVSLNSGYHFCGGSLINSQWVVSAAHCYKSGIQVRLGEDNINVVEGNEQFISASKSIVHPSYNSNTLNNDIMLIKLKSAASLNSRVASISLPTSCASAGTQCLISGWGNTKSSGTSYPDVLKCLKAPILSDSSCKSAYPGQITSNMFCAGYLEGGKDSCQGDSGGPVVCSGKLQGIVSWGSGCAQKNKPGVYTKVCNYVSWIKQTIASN
In words: in vitro. The gist of the method: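 Remaining RP-HPLC peak area tracks undigested peptide over time. Samples were quenched with 10% TFA at time points between 1.5 and 60 min during 37 °C digestion. Trypsin was added from a 0.05 μg/μL solution after 5 min of thermal equilibration.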

In a further data set the target is chymotrypsin (Bos taurus, UniProt P00766). In words: in vitro. The gist of the method: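 RP-HPLC peak area tracked intact peptide after 37 °C digestion with chymotrypsin (0.05 μg/μL solution, 5 min preincubation). Samples were withdrawn at 1.5-60.0 min and stopped with 10% TFA.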
A further data set concerns the target elastase (Sus scrofa, UniProt P00772). In words: in vitro. The gist of the method:
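Peptides and elastase (0.5 μg/μL solution) each pre-warmed 5 min at 37° C, then mixed; aliquots taken at 1.5 to 60.0 min and quenched with 10% TFA. Remaining intact peptide quantified as RP-HPLC peak area.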

The mark [3] stands for this setting: isolated enzyme chymotrypsin, pH 7.8, Residual peak area (%)/chymotrypsin.
Where [4] appears, read: isolated enzyme elastase, pH 8, Residual peak area (%)/elastase.

elastase, sequence (P00772 27-266): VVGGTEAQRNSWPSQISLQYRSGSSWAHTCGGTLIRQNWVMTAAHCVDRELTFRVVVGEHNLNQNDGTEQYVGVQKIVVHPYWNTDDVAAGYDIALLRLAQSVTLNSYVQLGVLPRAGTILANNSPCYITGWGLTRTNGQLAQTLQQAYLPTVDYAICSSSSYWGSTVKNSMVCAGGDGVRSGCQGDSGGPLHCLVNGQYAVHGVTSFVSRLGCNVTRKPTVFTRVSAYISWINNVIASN
T1 sequence (Q8NBP7 153-692): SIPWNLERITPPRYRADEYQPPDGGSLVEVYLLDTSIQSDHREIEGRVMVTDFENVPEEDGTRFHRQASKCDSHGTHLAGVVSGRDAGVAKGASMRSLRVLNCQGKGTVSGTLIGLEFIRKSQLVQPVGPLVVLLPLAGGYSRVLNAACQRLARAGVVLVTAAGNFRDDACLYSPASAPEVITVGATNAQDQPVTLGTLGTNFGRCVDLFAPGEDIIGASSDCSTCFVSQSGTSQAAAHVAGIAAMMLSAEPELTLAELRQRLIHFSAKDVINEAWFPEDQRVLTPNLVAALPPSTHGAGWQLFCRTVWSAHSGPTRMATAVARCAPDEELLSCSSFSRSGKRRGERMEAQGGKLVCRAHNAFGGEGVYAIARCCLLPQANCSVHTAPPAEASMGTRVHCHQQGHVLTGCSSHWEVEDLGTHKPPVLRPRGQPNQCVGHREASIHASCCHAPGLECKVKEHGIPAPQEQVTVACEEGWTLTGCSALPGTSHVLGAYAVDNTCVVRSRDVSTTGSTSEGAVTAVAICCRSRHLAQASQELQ
T1 sequence (Q8NBP7 31-152 partner limits assumed): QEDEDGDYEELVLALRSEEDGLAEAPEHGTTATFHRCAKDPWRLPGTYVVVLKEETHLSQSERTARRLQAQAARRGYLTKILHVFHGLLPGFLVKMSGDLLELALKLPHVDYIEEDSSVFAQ

As to “Ac-Gly-Arg-Cys-Thr-Lys-Ser-Ile-Pro-Pro-Ile-Cys-Phe-Pro-Gly-Gly-Ile-Pro-Ile-Gly-Gly-His-Ala-Glu-Gly-Thr-Phe-Thr-Ser-Asp-Val-Ser-Ser-Tyr-Leu-Glu-Gly-Gln-Ala-Ala-Lys-Glu-Phe-Ile-Ala-Trp-Leu-Val-Lys-Gly-Arg-Gly-Gly-Lys-NH2 (Ac-GRCTKSIPPICFPGGIPIGGHAEGTFTSDVSSYLEGQAAKEFIAWLVKGRGGK-NH2; disulfide 3-11 (inferred)) [Acetylated and Amidated SEQ ID NO: 194]”, the “hypoglycemic activity, subcutaneous injection (in words)” value (shortened to “hypoglycemic activity”) with normal ICR mice is reported as “did not show any significant differences in their hypoglycemic activity compared to the unmodified molecules”.

Turning to “PEG-Gly-Ile-Pro-Ile-Gly-Gly-His-Ala-Glu-Gly-Thr-Phe-Thr-Ser-Asp-Val-Ser-Ser-Tyr-Leu-Glu-Gly-Gln-Ala-Ala-Lys-Glu-Phe-Ile-Ala-Trp-Leu-Val-Lys-Gly-Arg-Gly-Gly-Lys-Gly-Cys-Gly-Arg-Ala-Thr-Lys-Ser-Ile-Pro-Pro-Ile-Cys-Phe ({PEG}-GIPIGGHAEGTFTSDVSSYLEGQAAKEFIAWLVKGRGGKGCGRATKSIPPICF; disulfide 41-52 (inferred); reading uncertain; also: printed as PEG-Gly-Ile-Pro-Ile-Gly-Gly-His-Ala-Glu-Gly-Thr-Phe-Thr-Ser-Asp-Val-Ser-Ser-Tyr-Leu-Glu-Gly-Gln-Ala-Ala-Lys-Glu-Phe-Ile-Ala-Trp-Leu-Val-Lys-Gly-Arg-Gly-Gly-Lys-Gly-Cys-Gly-Arg-Ala-Thr-Lys-Ser-Ile-Pro-Pro-Ile-Cys-Phe) [N-Terminal PEGylated SEQ ID NO: 200]”, the “hypoglycemic activity” value in the data set on normal ICR mice is “did not show any significant differences in their hypoglycemic activity compared to the unmodified molecules”.

“Ac-Gly-Ile-Pro-Ile-Gly-Gly-His-Ala-Glu-Gly-Thr-Phe-Thr-Ser-Asp-Val-Ser-Ser-Tyr-Leu-Glu-Gly-Gln-Ala-Ala-Lys-Glu-Phe-Ile-Ala-Trp-Leu-Val-Lys-Gly-Arg-Gly-Gly-Lys-Gly-Cys-Gly-Arg-Ala-Thr-Lys-Ser-Ile-Pro-Pro-Ile-Cys-Phe-NH2 (Ac-GIPIGGHAEGTFTSDVSSYLEGQAAKEFIAWLVKGRGGKGCGRATKSIPPICF-NH2; disulfide 41-52 (inferred)) [Acetylated and Amidated SEQ ID NO: 200]”: the “hypoglycemic activity” value in the data set with normal ICR mice is “did not show any significant differences in their hypoglycemic activity compared to the unmodified molecules”.

With “Ac-Gly-Ile-Pro-Ile-Gly-Gly-His-Ala-Glu-Gly-Thr-Phe-Thr-Ser-Asp-Val-Ser-Ser-Tyr-Leu-Glu-Gly-Gln-Ala-Ala-Lys-Glu-Phe-Ile-Ala-Trp-Leu-Val-Lys-Gly-Arg-Gly-Gly-Lys-Gly-Arg-Cys-Thr-Lys-Ser-Ile-Pro-Pro-Ile-Cys-Phe-Pro-NH2 (Ac-GIPIGGHAEGTFTSDVSSYLEGQAAKEFIAWLVKGRGGKGRCTKSIPPICFP-NH2; disulfide 42-50 (inferred)) [Acetylated and Amidated SEQ ID NO: 196]”, in the data set on normal ICR mice, the “hypoglycemic activity” value was “did not show any significant differences in their hypoglycemic activity compared to the unmodified molecules”.

As to “Ac-Cys-Gly-Arg-Ala-Thr-Lys-Ser-Ile-Pro-Pro-Ile-Cys-Phe-Gly-Gly-Ile-Pro-Ile-Gly-Gly-His-Ala-Glu-Gly-Thr-Phe-Thr-Ser-Asp-Val-Ser-Ser-Tyr-Leu-Glu-Gly-Gln-Ala-Ala-Lys-Glu-Phe-Ile-Ala-Trp-Leu-Val-Lys-Gly-Arg-Gly-Gly-Lys-NH2 (Ac-CGRATKSIPPICFGGIPIGGHAEGTFTSDVSSYLEGQAAKEFIAWLVKGRGGK-NH2; disulfide 1-12 (inferred)) [Acetylated and Amidated SEQ ID NO: 198]”, the “hypoglycemic activity” value in the data set on normal ICR mice is “did not show any significant differences in their hypoglycemic activity compared to the unmodified molecules”.

Consider `CC(C)C[C@H](NC(=O)[C@H](Cc1ccc(O)cc1)NC(=O)[C@H](CCC(=O)O)NC(=O)[C@H](CCC(=O)O)NC(=O)[C@H](Cc1c[nH]c2ccccc12)NC(=O)[C@H](CO)NC(=O)[C@@H](NC(=O)[C@H](Cc1ccccc1)NC(=O)[C@@H](NC(=O)[C@@H](N)[C@@H](C)O)C(C)C)[C@@H](C)O)C(=O)N[C@@H](CC(=O)O)C(=O)N[C@@H](Cc1c[nH]c2ccccc12)C(=O)N[C@H](C(=O)O)C(C)C` [PCSK9_1, reference compound], for which the inhibition at 50 µM in data set [1] was found to be 26 ± 10%. Further, the “serum total cholesterol (TC) level after subcutaneous injection (in words)” value in data set [2] (2 μmol/kg single s.c., P407-induced hyperlipidemia mice) is “little effect on lowering total cholesterol”. Also, the “TC 30 min” value in data set [2] (serum, subcutaneous 2 μmol/kg, 30 min after administration, mean ± sd) was found to be 392.5 ± 133.0 mg/dL (≈ 2340 µM). Further, the “TC 60 min” value in data set [2] (serum, subcutaneous 2 μmol/kg, 60 min after administration, mean ± sd) was 335.0 ± 111.7 mg/dL (≈ 2000 µM). Further, the “TC 90 min” value in data set [2] (serum, subcutaneous 2 μmol/kg, 90 min after administration, mean ± sd) came to 383.2 ± 125.9 mg/dL (≈ 2290 µM). Further, the “TC 120 min” value in data set [2] (serum, subcutaneous 2 μmol/kg, 120 min after administration, mean ± sd) stood at 370.4 ± 122.3 mg/dL. Also, on trypsin, the “stability towards trypsin hydrolysis (in words)” value is recorded as “stable towards trypsin”. In addition, at chymotrypsin, the “Residual peak area (%)/chymotrypsin” value is given as 100.0 ± 0.0%; the “stability towards chymotrypsin hydrolysis (in words)” value was “easily degraded by chymotrypsin and elastase”. On chymotrypsin (setting [3]), this molecule showed a fraction remaining at 0.025 h, 60 μM of 82.3 ± 5%; a fraction remaining at 0.05 h, 60 μM of 80.7 ± 3.3%; a share remaining at 0.075 h, 60 μM of 80.1 ± 2%; a share remaining at 0.1 h, 60 μM of 79.1 ± 5.6%. Further, at chymotrypsin (setting [3]), the amount remaining at 0.15 h, 60 μM came to 75.5 ± 1.6%; the share remaining at 0.25 h, 60 μM turned out to be 71.2 ± 2.4%; the share remaining at 0.5 h, 60 μM amounted to 62.7 ± 2.6%; the amount remaining at 1 h, 60 μM worked out at 47.7 ± 2%. Moreover, on elastase, the “Residual peak area (%)/elastase” value turned out to be 100.0 ± 0.0%; the “stability towards elastase hydrolysis (in words)” value was “easily degraded by chymotrypsin and elastase”. On elastase (setting [4]), this molecule gave a share remaining at 0.025 h, 60 μM of 95.4 ± 0.9%; a fraction remaining at 0.05 h, 60 μM of 90.6 ± 2.4%; an amount remaining at 0.075 h, 60 μM of 83.3 ± 1.8%; a fraction remaining at 0.1 h, 60 μM of 85.5 ± 2.7%. On elastase (setting [4]), this molecule yielded a fraction remaining at 0.15 h, 60 μM of 79.6 ± 0.8%; a fraction remaining at 0.25 h, 60 μM of 66.8 ± 0.8%; a fraction remaining at 0.5 h, 60 μM of 52.9 ± 1.5%; a fraction remaining at 1 h, 60 μM of 28.9 ± 0.7%.

As to “PEG-Phe-Cys-Thr-Tyr-Ser-Ile-Pro-Pro-Gln-Cys-Tyr-Gly-Gly-Ile-Pro-Ile-Gly-Gly-His-Ala-Glu-Gly-Thr-Phe-Thr-Ser-Asp-Val-Ser-Ser-Tyr-Leu-Glu-Gly-Gln-Ala-Ala-Lys-Glu-Phe-Ile-Ala-Trp-Leu-Val-Lys-Gly-Arg-Gly-Gly-Lys ({PEG}-FCTYSIPPQCYGGIPIGGHAEGTFTSDVSSYLEGQAAKEFIAWLVKGRGGK; disulfide 2-10 (inferred); reading uncertain; also: printed as PEG-Phe-Cys-Thr-Tyr-Ser-Ile-Pro-Pro-Gln-Cys-Tyr-Gly-Gly-Ile-Pro-Ile-Gly-Gly-His-Ala-Glu-Gly-Thr-Phe-Thr-Ser-Asp-Val-Ser-Ser-Tyr-Leu-Glu-Gly-Gln-Ala-Ala-Lys-Glu-Phe-Ile-Ala-Trp-Leu-Val-Lys-Gly-Arg-Gly-Gly-Lys) [N-Terminal PEGylated SEQ ID NO: 204]”, the “hypoglycemic activity” value in the data set on normal ICR mice is on record as “did not show any significant differences in their hypoglycemic activity compared to the unmodified molecules”.

In general, inhibition refers to the change of the read-out against control, counted positive when it falls. High values mean a response far below the control, low ones a response near the control. The share remaining is what is left of the initial amount, in per cent.
